Experimental data published in patent publication US20080274057A1, “Staudinger Reaction in Imaging and Therapy and Kits for Use in Imaging and Therapy” (KONINKLIJKE PHILIPS ELECTRONICS, N.V., priority 2005, published 2008).
Read-outs that look alike come from different tables or passages of the source.

Experiments:
[1] = for extent of activation reaction: 10 μM prodrug
Protocol: 11) Activation of the doxorubicin prodrug (9) followed with HPLC and LC-MS
The activation was carried out in the following way: a solution of prodrug in water or growth medium was mixed with a solution of triphenylphosphine-3,3′,3″-trisulfonic acid trisodium salt in water or growth medium. Samples were taken from the reaction mixture (at 37 C) every 2 hours and measured in the HPLC or LCMS. Several different concentrations and ratios prodrug/triphenylphosphine were used. The first activation experiment was done in water with a concentration of 100 μM for the prodrug and 200 μM for the phosphine, and monitored with HPLC.
The second activation was done at a 10-fold lower concentration, 10 μM for the prodrug and 20 μM for the phosphine, and monitored with LCMS.
The third and last activation was done in cell growth medium at 10 μM prodrug. […] During this experiment a fresh portion (60 μM) triphenylphosphine was added to the mixture twice a day.

A431 cells = settings: for anti-proliferative activity (ranking): 72 hours incubation, ranking among pro-dox, pro-dox plus phosphine, and doxorubicin
Protocol: 12) Cell proliferation assay using A431 cells with prodrug 9 (pro-dox) in situ activated by triphenylphosphine.
The in vitro anti-cancer activity of prodrug 9 (pro-dox) was assessed by means of cytotoxicity assays. For these cellular experiments the A431 cell line was used. […] The addition of the prodrug in combination with phosphine should lead to a reduction in proliferation compared to the addition of pro-dox without phosphine, due to the release of doxorubicin by means of the staudinger reaction.
Cells were maintained at 37° C. in DMEM (InVitrogen), supplemented with 10% heat-inactivated fetal bovine serum and 0.05% glutamax (InVitrogen) in the presence of penicillin and streptomycin.
Doxorubicin (Toronto Research Chemicals) and pro-dox (9) were, prior to each experiment, freshly dissolved in DMF at 10 mM and subsequently serial diluted in pre-warmed culture medium. Triphenylphosphine-3,3′,3″-trisulfonic acid trisodium salt (Sigma) was dissolved in PBS at 10 mM and serial diluted in pre-warmed medium. Methylthiazolyldiphenyl-tetrazolium bromide, MTT (Sigma) was used as described by the manufacturer.
Cells were plated out in a 96 well plate (Nunc) at a density of 7500 cells/well, followed by addition of reagents the next day. After 72 hours incubation cell proliferation was assessed by means of a MTT assay. Briefly, MTT was dissolved in pre-warmed medium at 5 mg/ml, passed through a 0.22 μm filter and 50 μl was added to each well. Following an incubation period of 120 minutes the medium was gently aspirated. The formed formazan crystals were dissolved in 100 μl DMSO and the absorbance, or optical density (O.D.), was measured with a plate reader (BMG) at 560 nm. The inhibition of proliferation was determined by reporting the O.D. of the treated group (T) with the O.D. of the appropriate control group (C), and expressed as [(1-T/C)×100%].
Therefore, instead of adding the prodrug to the cell culture together with a single batch triphenylphosphine on day 2, the phosphine was added at fixed intervals from day 2 to day 4. Three phosphine dosing schemes were investigated: 5×10 μM, 5×30 μM, and 5×60 μM. The range of the concentrations used for the doxorubicin drugs was 0-0.01-0.1-0.3-1.0-10 μM.
The above phosphine-dosing scheme was compared to a single batch-dosing scheme at the same total amount of phosphine.

[2] = Activation of model azido-prodrug 4 by 3-(diphenylphosphino)benzenesulfonate (5), followed with 1H NMR
Protocol: 9) Activation of model azido-prodrug 4-azidobenzyl N-benzyl carbamate (4) by 3-(diphenylphosphino)benzenesulfonate (5) in two different media.
In DMF/H2O (3.5/1): Prodrug 4 (5.3 mg, 18.8 μmol) was dissolved in 952 μl DMF-d7 and 275 μl D2O. Phosphine 5 (12.1 mg, 33.2 μmol) was added and the reaction was followed with ^1H NMR. The reaction had run to completion within 14 hours as judged from the disappearance of the CH2 azidobenzyl signal at 4.83 ppm and the appearance of the CH2 signal of the corresponding aminobenzylalcohol (7) at 4.64 ppm.
In THF/H2O (1/1): Prodrug 4 (4.8 mg, 17.0 μmol) was dissolved in 275 μl THF-d8 and 275 μl D2O. Phosphine 5 (11.3 mg, 31.0 μmol) was added to the slightly yellow solution after which gas development was observed. The reaction was followed with ^1H NMR and had to run to 50% after 7 hours as judged from the disappearance of the CH2 benzyl signal at 4.38 ppm and the appearance of the CH2 signal of the corresponding free benzylamine (6) at 3.99 ppm.

Row | Compound | extent of activation reaction ([1]; 20 μM phosphine, after 24 hours, LCMS) | extent of activation reaction ([1]; cell growth medium, fresh 60 μM triphenylphosphine added twice a day, after 8 hours) [%] | time until reaction was complete ([1]; water, 37 C, 100 μM prodrug, 200 μM phosphine, HPLC) [h] | doxorubicin formed ([1]; water, 37 C, 100 μM prodrug, 200 μM phosphine, after 8 hours, HPLC) [%] | anti-proliferative activity (ranking) (A431 cells; MTT) | increase of activity over pro-dox alone (A431 cells; 72 hours, MTT, pro-dox with 60 μM repetitive dose (5×60 μM) of phosphine) [fold] | activation by a single dose of phosphine compared with sequential additions (A431 cells; identical total phosphine amounts) | activity relative to pro-dox (A431 cells; 72 hours, MTT) | time until reaction had run to completion ([2]; DMF/H2O (3.5/1), prodrug 18.8 μmol, phosphine 5 33.2 μmol) [h] | extent of reaction (release of free benzylamine) ([2]; THF/H2O (1/1), after 7 hours, prodrug 17.0 μmol, phosphine 5 31.0 μmol) [%]
1 | Azidobenzyl carbamate Doxorubicin [prodrug 9] | approximately 30% | 85 | 20 | 15 | lowest anti-proliferative activity | 33 | not nearly as effective | – | – | –
2 | COc1cccc2c1C(=O)c1c(O)c3c(c(O)c1C2=O)C[C@@](O)(C(=O)CO)C[C@@H]3O[C@H]1C[C@H](N)[C@H](O)[C@H](C)O1 [Doxorubicin, reference compound] | – | – | – | – | highest activity | – | – | 2 orders of magnitude | – | –
3 | [N-]=[N+]=Nc1ccc(COC(=O)NCc2ccccc2)cc1 [prodrug 4, 4-azidobenzyl N-benzyl carbamate] | – | – | – | – | – | – | – | – | ≤ 14 | 50
